The values below are quoted from earlier work in patent US12458027B2, “Glyphosate composition for dicamba tank mixtures with improved volatility” (Monsanto Technology LLC, priority 2013, dated 2025).

For this data set the following is noted: 25° C.

For `O=C(O)CNCP(=O)(O)O` [Glyphosate acid, N-(phosphonomethyl)glycine], the solubility in water result was “about 1.16 wt. %”.
